These results are taken from PMC11434613, “The Remarkable and Selective In Vitro Cytotoxicity of Synthesized Bola-Amphiphilic Nanovesicles on Etoposide-Sensitive and -Resistant Neuroblastoma Cells” (Nanomaterials, 2024).

Series [1] relates to HTLA-ER cells. The series can be described thus: Cell viability assay (CellTiter 96 AQueous One Solution) on etoposide-resistant HTLA-ER NB cells. Type of series: cell-based, human. To be noted: average IC50 on three human normal oral cell lines (ref 69) / IC50 on HTLA-ER after 24 h (ref 58). The source says: HTLA-230 human stage-IV NB cells were kindly provided by Dr. L. Raffaghello (G. Gaslini Institute, Genoa, Italy). The HTLA-ER cells were selected by treating HTLA-230 parental cells for six months with increasing concentrations of etoposide, as previously reported. Both cell populations were maintained in RPMI 1640 medium (Euroclone Spa, Pavia, Italy) supplemented with 10% fetal bovine serum (FBS, Euroclone Spa, Pavia, Italy), 1% L-glutamine (Euroclone Spa, Pavia, Italy), and 1% Penicillin/Streptomicin (Euroclone Spa, Pavia, Italy) and grown in standard conditions (37 °C humidified incubator with 5% CO2).
To determine the cytotoxic effects of BPPB, in vitro time- and dose-dependent experiments were carried out. Cells were first treated for 24, 48, and 72 h, with increasing concentrations (0.5–50 µM) of the compound. In a subsequent series of the experiments, cells were treated for 24, 48, and 72 h with increasing concentration of BPPB in the range of 0.1–2 µM. […] Cell cultures were carefully monitored before and during the experiments to ensure optimal cell density.
Cell viability was determined by using the CellTiter 96® AQueous One Solution Cell Proliferation Assay (Promega, Madison, WI, USA), as previously described. Briefly, cells (10,000 cells/well) were seeded into 96-well plates (Corning Incorporated, Corning, NY, USA) and then treated. Next, cells were incubated with 20 µL of CellTiter, and the absorbance at 490 nm was recorded using a microplate reader (EL-808, BIO-TEK Instruments Inc., Winooski, VT, USA). IC50 was evaluated by GraphPad Prism 5.4.2 Software (GraphPad Software, Boston, MA, USA).
Results are expressed as the means ± S.D. of at least four independent experiments in which six different wells were analyzed every time for each experimental condition. The statistical significance of differences was determined by two-way analysis of variances (ANOVA) followed by Tukey’s multicomparison test using GraphPad Prism 8.0 (GraphPad Software v8.0, San Diego, CA, USA); p < 0.05 was considered statistically significant. Asterisks or other indicators (see Figures captions) indicate the following p-value ranges: p > 0.05 no symbols, * = p < 0.05, ** = p < 0.01, *** = p < 0.001, **** = p < 0.0001.

The subject of series [2] is HTLA-230 human stage-IV NB cells. To be noted: 100 µM for 24 h; cited from earlier work.
Series [3] concerns HTLA-ER cells. To be noted: cited from earlier work.

Take `COc1cc([C@@H]2c3cc4c(cc3[C@@H](O[C@@H]3O[C@@H]5CO[C@@H](C)O[C@H]5[C@H](O)[C@H]3O)[C@H]3COC(=O)[C@H]23)OCO4)cc(OC)c1O` [ETO, etoposide]: the “Etoposide SI for HTLA-ER NB cells” value in the series with HTLA-ER cells [1] is listed as 0.32. Also, in series [2], the “Cell viability HTLA-230” value was about 70%. In addition, in the series with HTLA-ER cells [3] (100 µM for 24 h), the “Cell viability HTLA-ER” value is “over 80%”. The IC50 with HTLA-ER cells [3] (24 h of exposure, read-out: Extrapolated IC50 on HTLA-ER) is 592 µM.

One may read the IC50 as the point on the concentration scale where inhibition reaches its midpoint.
